# Assay results reported in US7700619B2, “2-methoxymethyl-3-(3,4-dichlorophenyl)-8-azabicyclo[3.2.1]octane tartrate salts” (Neurosearch A/S, priority 2003, dated 2010).
# Experiment: Physical stability of the polymorphic form on repeated preparation
# Assay type: physicochemical
# Details: successive preparations of Form IV turned out as mixtures of Form IV and Form III
# Description: The form was prepared by suspending a freshly prepared Form II in water free ethanol. Separation of the suspended matter was conducted after 24 hours and subsequent drying under vacuum.
# Form IV can also be obtained from suspension of Form III by the same procedure as described using Form II.
# Successive preparations of Form IV turned out as mixtures of Form IV and Form III, indicating difficulties in producing Form IV
structure (smiles),measurement,value
"COC[C@@H]1[C@@H](c2ccc(Cl)c(Cl)c2)C[C@@H]2CC[C@H]1N2.O=C(O)C(O)C(O)C(=O)O [Form IV, (1R,2R,3S,5S)-2-methoxymethyl-3-(3,4-dichlorophenyl)-8-azabicyclo[3.2.1]octane L-tartrate anhydrate (Form IV)]",physical stability of the crystal form,physically metastable
